Test results as given in patent publication US11576891B2, “Methods of treating or preventing estrogen-related diseases” (ENDORECHERCHE, INC., priority 2010, dated 2023).
“Also recorded” adds a separate entry of the source. Marks after values point to notes of the source that are not given here.

Experiments:
[1] = tested on: human endometrial Ishikawa carcinoma cells; conditions: cited from earlier work
rat = assay: biochemical parameters of bone metabolism in rats treated with DHEA and/or EM-800; type: in vivo; conditions: for SERUM TALP (alkaline phosphatase) / URINE CALCIUM / URINE HP/Cr (hydroxyproline/creatinine ratio) / URINE PHOSPHORUS: DHEA 10 mg percutaneously, EM-800 75 μg orally, once daily; for decrease of urinary hydroxyproline/creatinine ratio, marker of bone resorption / increase of serum alkaline phosphatase activity, marker of bone formation: versus control
Source text: Data are expressed as the means±SEM. **: P<0.01 experimental versus respective control.
It is particularly important to indicate that the combination of DHEA and EM-800 exerts unexpected beneficial effects on important biochemical parameters of bone metabolism. […] Moreover, no effect of DHEA alone could be detected on daily urinary calcium or phosphorus excretion (Luo, Sourla et al. 1997). EM-800, on the other hand, decreased the urinary hydroxyproline/creatinine ratio by 48% while, similarly to DHEA, no effect of EM-800 was seen on urinary calcium or phosphorus excretion. EM-800, moreover, had no effect on serum alkaline phosphatase activity, a marker of bone formation while DHEA increased the value of the parameter by about 75% (Luo, Sourla et al. 1997) (Table 2).
Thus, the addition of DHEA to EM-800 increases by 50% of the inhibitory effect of EM-800 on bone reabsorption.

[2] = tested on: postmenopausal women suffering from vaginal atrophy; conditions: daily intravaginal, 3 months; cited from earlier work
ovariectomized rats = assay: bone histomorphometry after 12-month treatment of ovariectomized rats; type: in vivo, rat; conditions: 12 months
Protocol: FIG. 6 is a bar graph comparing the effect of 12-month treatment with dehydroepiandrosterone (DHEA) alone or in combination with Flutamide or EM-800 on trabecular bone volume in ovariectomized rats. Intact animals are added as additional controls. Data are presented as mean±SEM **p<0.01 versus OVX Control.
FIG. 7 is a bar graph comparing the effect of 12-month treatment with dehydroepiandrosterone (DHEA) alone or in combination with Flutamide or EM-800 on trabecular number of ovariectomized rats. Intact animals are added as additional controls. Data are presented as mean±SEM **p<0.01 versus OVX Control.
Note the reduced amount of trabecular bone (T) in ovariectomized control animals (B), and the significant increase in trabecular bone volume (T) induced after DHEA administration (C). […] Modified trichrome Masson-Goldner, magn.×80. T: Trabeculae, GP: Growth Plate.
Importantly, the combination of EM-800 and DHEA in ovariectomized rats treated for 12 months had beneficial effects on bone morphometry. Trabecular bone volume is particularly important for bone strength and to prevent bone fractures.

60- to 70-year-old women = conditions: cited from earlier work
solid state stability = type: physicochemical
postmenopausal women = assay: serum lipids in postmenopausal women given oral EM-800; type: in vivo, human
ovariectomized rat = conditions: rat after ovariectomy; cited from earlier work

COc1ccc(-c2sc3cc(O)ccc3c2Oc2ccc(OCCN3CCCCC3)cc2)cc1.Cl [Arzoxifene, 6-hydroxy-3-[4-[2-(1-piperidinyl)ethoxy]phenoxyl]-2-(4-methoxyphenyl)benzo[b]thiophene hydrochloride]
effect on estrogen-sensitive parameter alkaline phosphatase [1]: stimulate, to various degrees

C[C@]12CC[C@H](O)CC1=CC[C@@H]1[C@@H]2CC[C@]2(C)C(=O)CC[C@@H]12 [DHEA, dehydroepiandrosterone]
effect on daily urinary calcium or phosphorus excretion (rat): no effect | SERUM TALP (alkaline phosphatase) (rat): 198.38 ± 30.76* IU/L | URINE CALCIUM (rat): 25.87 ± 3.54 μmol/24 h/100 g | URINE HP/Cr (hydroxyproline/creatinine ratio) (rat): 14.02 ± 1.59 μmol/mmol | URINE PHOSPHORUS (rat): 151.41 ± 14.57 μmol/24 h/100 g | decrease of urinary hydroxyproline/creatinine ratio, marker of bone resorption (rat): did not affect; also recorded: did not show any effect | increase of serum alkaline phosphatase activity, marker of bone formation (rat): about 75% | circulating estradiol or testosterone [2]: no change | domains of sexual dysfunction (desire, arousal, orgasm and pleasure) [2]: significant improvement | symptoms and signs of vaginal atrophy [2]: rapid and very marked improvement | increase in trabecular bone number compared to ovariectomized controls (ovariectomized rats): 137% | trabecular bone number (ovariectomized rats): 1.27±0.1 per mm | trabecular bone volume of the tibia (ovariectomized rats): 11.9±0.6% | abdominal fat measurements (60- to 70-year-old women; 12 months): no significant change | body weight (60- to 70-year-old women; 12 months): no change | decrease in fasting plasma insulin levels (60- to 70-year-old women; 12 months): 17% | decrease in plasma bone alkaline phosphatase (60- to 70-year-old women; 12 months): 22% | decrease in subcutaneous skin fold thickness (60- to 70-year-old women; 12 months): 9.8% | decrease in urinary hydroxyproline (60- to 70-year-old women; 12 months): 38% | decrease of fasting plasma glucose (60- to 70-year-old women; 12 months): 12% | decrease of femoral fat (midthigh, computed tomography) (60- to 70-year-old women; 12 months): 3.8% | increase in bone mass density at the hip (60- to 70-year-old women; 12 months): 2.3% | increase in bone mass density at the hip Ward's triangle (60- to 70-year-old women; 12 months): 3.75% | increase in bone mass density at the lumbar spine level (60- to 70-year-old women; 12 months): 2.2% | increase in femoral muscular area (midthigh, computed tomography) (60- to 70-year-old women; 12 months): 3.5% | increase over control in plasma osteocalcin (60- to 70-year-old women; 12 months): 135% | plasma triglycerides (60- to 70-year-old women; 12 months): not affected | endometrium histology (60- to 70-year-old women; after 12 months, all women): remained completely atrophic | increase in index of sebum secretion (60- to 70-year-old women; after 12 months): 79% | women with stimulated vaginal epithelium maturation (60- to 70-year-old women; women with a maturation value of zero at onset of therapy): 8 out of 10

CC/C(=C(/c1ccc(OCCN(C)C)cc1)c1cccc(O)c1)c1ccccc1 [Droloxifene, (E)-3-[1-[4-[2-(Dimethylamino)ethoxy]phenyl]-2-phenyl-1-butenyl]phenol]
effect on estrogen-sensitive parameter alkaline phosphatase [1]: stimulate, to various degrees

CC1=C(c2ccc(O)cc2)[C@H](c2ccc(OCCN3CCCCC3)cc2)Oc2cc(O)ccc21.Cl [EM-652.HCl, (S)-(+)-7-hydroxy-3-(4′-hydroxyphenyl)-4-methyl-2-(4″-(2′″-piperidinoethoxy)phenyl)-2H-1 benzopyran hydrochloride]
solid state stability (solid state stability): good solid state stability

CC1=C(c2ccc(OC(=O)C(C)(C)C)cc2)[C@H](c2ccc(OCCN3CCCCC3)cc2)Oc2cc(OC(=O)C(C)(C)C)ccc21 [EM-800, (S)-(+)-4-[7-(2,2-dimethyl-1-oxopropoxy)-4-methyl-2-[4-[2-(1-piperidinyl)-ethoxy]phenyl]-2H-1-benzopyran-3-yl]-phenyl 2,2-dimethylpropanoate]
effect on daily urinary calcium or phosphorus excretion (rat): no effect | SERUM TALP (alkaline phosphatase) (rat): 114.11 ± 11.26 IU/L | URINE CALCIUM (rat): 17.44 ± 4.5 μmol/24 h/100 g | URINE HP/Cr (hydroxyproline/creatinine ratio) (rat): 6.81 ± 0.84** μmol/mmol | URINE PHOSPHORUS (rat): 102.03 ± 25.13 μmol/24 h/100 g | decrease of urinary hydroxyproline/creatinine ratio, marker of bone resorption (rat): 48% | increase of serum alkaline phosphatase activity, marker of bone formation (rat): no effect | antiestrogenic activity in Ishikawa cells [1]: pure antiestrogenic activity | decrease in total serum cholesterol (postmenopausal women; daily oral dose of 5, 10, 20 and 40 mg for 2 weeks): 10% | decrease in serum triglyceride levels (postmenopausal women; daily oral dose of 5, 10, 20 and 40 mg, at 1 week): 15% | dose at which maximal effect on bone resorption is achieved (ovariectomized rat): 0.01 mg/kg

CC/C(=C(\c1ccc(I)cc1)c1ccc(OCCN2CCCC2)cc1)c1ccccc1 [Idoxifene, (E)-1-[2-[4-[1-(4-Iodophenyl)-2-phenyl-1-butenyl]phenoxy]ethyl]pyrrolidine]
effect on estrogen-sensitive parameter alkaline phosphatase [1]: stimulate, to various degrees

OCCOc1ccc(/C(=C(/CCCl)c2ccccc2)c2ccccc2)cc1 [Ospemifene, (Z)-2-[4-(4-chloro-1,2-diphenyl-1-butenyl)phenoxyl]ethanol]
effect on estrogen-sensitive parameter alkaline phosphatase [1]: stimulate, to various degrees

Cl.O=C(c1ccc(OCCN2CCCCC2)cc1)c1c(-c2ccc(O)cc2)sc2cc(O)ccc12 [Raloxifene, [2-(4-hydroxyphenyl)-6-hydroxybenzo[b]thien-3-yl][4-[2-(1-piperidinyl)ethoxy]phenyl]-methanone hydrochloride]
effect on estrogen-sensitive parameter alkaline phosphatase [1]: stimulate, to various degrees | dose at which maximal effect on bone resorption is achieved (ovariectomized rat): 0.1 mg/kg

CC/C(=C(\c1ccccc1)c1ccc(OCCN(C)C)cc1)c1ccccc1 [Tamoxifen, (Z)-2-[4-(1,2-diphenyl-1-butenyl)phenoxy]-N,N-dimethylethanamine]
effect on estrogen-sensitive parameter alkaline phosphatase [1]: stimulate, to various degrees

CN(C)CCOc1ccc(/C(=C(/CCCl)c2ccccc2)c2ccccc2)cc1 [Toremifene, (Z)-2-[4-(4-Chloro-1,2-diphenyl-1-butenyl)phenoxy]-N,N-dimethylethanamine]
effect on estrogen-sensitive parameter alkaline phosphatase [1]: stimulate, to various degrees
